# Reference: PubChem BioAssay AID270 (DTP/NCI, 2004)
# “And” between values parts separate entries of the source, which are not always exact repeats. Equal entries are not always repeated. Results filed as inconclusive are left out.
# Test system: BDF1 mice, s.c. Lewis lung carcinoma, T/C %
# Assay: NCI In Vivo Anticancer Drug Screen. Data for tumor model Lewis Lung Carcinoma (subcutaneous) in B6D2F1 (BDF1) mice
# Summary of the method: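 First, mice carry a transplantable tumor. Next, groups receive either compound or vehicle. Finally, survival or tumor dimensions in the dosed animals are divided by the corresponding control figure.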
# [1] = endpoint: median survival time, dose: 6.25 mg/kg/injection, schedule: Q01DX009 (ip), vehicle: Klucel (hydroxypropylcellulose) (HPC), higher = longer survival
# [2] = endpoint: median survival time, dose: 12.5 mg/kg/injection, schedule: Q01DX009 (ip), vehicle: Klucel (hydroxypropylcellulose) (HPC), higher = longer survival
# [3] = endpoint: median survival time, dose: 50.0 mg/kg/injection, schedule: Q01DX009 (ip), vehicle: Klucel (hydroxypropylcellulose) (HPC), higher = longer survival
# [4] = endpoint: median survival time, dose: 25.0 mg/kg/injection, schedule: Q01DX009 (ip), vehicle: Klucel (hydroxypropylcellulose) (HPC), higher = longer survival
# [5] = endpoint: median survival time, dose: 6.25 mg/kg/injection, schedule: Q01DX009 (ip), vehicle: saline, higher = longer survival
# [6] = endpoint: median survival time, dose: 12.5 mg/kg/injection, schedule: Q01DX009 (ip), vehicle: saline, higher = longer survival
# [7] = endpoint: median survival time, dose: 25.0 mg/kg/injection, schedule: Q01DX009 (ip), vehicle: saline, higher = longer survival
smiles,measurement,setting,value
O=NN(CCCl)C(=O)Nc1ccc(I)cc1,T/C,"endpoint: median survival time, dose: 3.12 mg/kg/injection, schedule: Q01DX009 (ip), vehicle: Klucel (hydroxypropylcellulose) (HPC), higher = longer survival",92 % of control
same,T/C,[1],97 % of control
same,T/C,[2],101 % of control
same,T/C,[3],108 % of control
COc1cc(C[C@H]2c3cc(OC)c(OC)cc3CCN2C)c(Oc2cc3c(cc2OC)-c2c(OC)c(OC)cc4c2[C@H](C3)N(C)CC4)cc1OC,T/C,"endpoint: mean tumor weight, dose: 50.0 mg/kg/injection, schedule: Q01DX011 (ip), vehicle: carboxymethylcellulose (CMC), higher = larger tumour",49 % of control
same,T/C,"endpoint: mean tumor weight, dose: 100.0 mg/kg/injection, schedule: Q01DX011 (ip), vehicle: carboxymethylcellulose (CMC), higher = larger tumour",26 % of control
CC(C)=CCC(OC(=O)C=C(C)C)C1=CC(=O)c2c(O)ccc(O)c2C1=O (stereo not drawn),T/C,[1],104 % of control
same,T/C,[2],88 % of control
same,T/C,[4],118 % of control
CS(=O)(=O)OCCC(=O)N1CCN(C(=O)CCOS(C)(=O)=O)CC1,T/C,"endpoint: mean tumor weight, dose: 12.5 mg/kg/injection, schedule: Q01DX011 (ip), vehicle: saline, higher = larger tumour",85 % of control
same,T/C,"endpoint: mean tumor weight, dose: 25.0 mg/kg/injection, schedule: Q01DX011 (ip), vehicle: saline, higher = larger tumour",66 % of control
same,T/C,"endpoint: mean tumor weight, dose: 50.0 mg/kg/injection, schedule: Q01DX011 (ip), vehicle: saline, higher = larger tumour",85 % of control
same,T/C,"endpoint: mean tumor weight, dose: 100.0 mg/kg/injection, schedule: Q01DX011 (ip), vehicle: saline, higher = larger tumour",46 % of control
same,T/C,"endpoint: median survival time, dose: 1.56 mg/kg/injection, schedule: Q01DX009 (ip), vehicle: saline, higher = longer survival",109 % of control
same,T/C,"endpoint: median survival time, dose: 3.12 mg/kg/injection, schedule: Q01DX009 (ip), vehicle: saline, higher = longer survival",103 % of control
same,T/C,[5],106 % of control
same,T/C,[6],103 % of control
same,T/C,[7],102 % of control
same,T/C,"endpoint: median survival time, dose: 50.0 mg/kg/injection, schedule: Q01DX009 (ip), vehicle: saline, higher = longer survival",114 % of control
CC(C)(C)C(=O)O,T/C,"endpoint: mean tumor weight, dose: 37.0 mg/kg/injection, schedule: Q01DX011 (ip), vehicle: other, higher = larger tumour",75 % of control
same,T/C,"endpoint: mean tumor weight, dose: 83.0 mg/kg/injection, schedule: Q01DX011 (ip), vehicle: other, higher = larger tumour",159 % of control
same,T/C,"endpoint: mean tumor weight, dose: 125.0 mg/kg/injection, schedule: Q01DX011 (ip), vehicle: other, higher = larger tumour",92 % of control
NC(CSC(c1ccccc1)(c1ccccc1)c1ccccc1)C(=O)O (stereo not drawn),T/C,"endpoint: mean tumor weight, dose: 12.0 mg/kg/injection, schedule: Q01DX011 (ip), vehicle: methylcellulose (MC), higher = larger tumour",115 % of control
same,T/C,"endpoint: median survival time, dose: 8.0 mg/kg/injection, schedule: Q01DX009 (ip), vehicle: Klucel (hydroxypropylcellulose) (HPC), higher = longer survival",120 % of control
same,T/C,"endpoint: median survival time, dose: 32.0 mg/kg/injection, schedule: Q01DX009 (ip), vehicle: Klucel (hydroxypropylcellulose) (HPC), higher = longer survival",112 % of control
COc1cc(OC)c(OC)cc1/C=C/c1cc[n+](C)c2ccccc12,T/C,[5],97 % of control
same,T/C,[6],97 % of control
same,T/C,[7],111 % of control
O=NN(CCCl)C(=O)Nc1ccc(Br)cc1,T/C,"endpoint: median survival time, dose: 1.25 mg/kg/injection, schedule: Q01DX009 (ip), vehicle: Klucel (hydroxypropylcellulose) (HPC), higher = longer survival",97 % of control
same,T/C,"endpoint: median survival time, dose: 2.5 mg/kg/injection, schedule: Q01DX009 (ip), vehicle: Klucel (hydroxypropylcellulose) (HPC), higher = longer survival",101 % of control
same,T/C,"endpoint: median survival time, dose: 5.0 mg/kg/injection, schedule: Q01DX009 (ip), vehicle: Klucel (hydroxypropylcellulose) (HPC), higher = longer survival",88 % of control
same,T/C,"endpoint: median survival time, dose: 9.4 mg/kg/injection, schedule: Q01DX009 (ip), vehicle: Klucel (hydroxypropylcellulose) (HPC), higher = longer survival",108 % of control
same,T/C,"endpoint: median survival time, dose: 10.0 mg/kg/injection, schedule: Q01DX009 (ip), vehicle: Klucel (hydroxypropylcellulose) (HPC), higher = longer survival",102 % of control
CC(=O)OCC1CCC(NC(=O)N(CCCl)N=O)CC1 (stereo not drawn),T/C,"endpoint: median survival time, dose: 8.0 mg/kg/injection, schedule: Q01DX001 (ip), vehicle: Klucel (hydroxypropylcellulose) (HPC), higher = longer survival",112 % of control
same,T/C,"endpoint: median survival time, dose: 12.0 mg/kg/injection, schedule: Q01DX001 (ip), vehicle: Klucel (hydroxypropylcellulose) (HPC), higher = longer survival",124 % of control
same,T/C,"endpoint: median survival time, dose: 18.0 mg/kg/injection, schedule: Q01DX001 (ip), vehicle: Klucel (hydroxypropylcellulose) (HPC), higher = longer survival",163 % of control
same,T/C,"endpoint: median survival time, dose: 26.0 mg/kg/injection, schedule: Q01DX001 (ip), vehicle: Klucel (hydroxypropylcellulose) (HPC), higher = longer survival",160 % of control
same,T/C,"endpoint: median survival time, dose: 40.0 mg/kg/injection, schedule: Q01DX001 (ip), vehicle: Klucel (hydroxypropylcellulose) (HPC), higher = longer survival",104 % of control
CC[C@]1(O)C[C@H]2CN(CCc3c([nH]c4ccccc34)[C@@](C(=O)OC)(c3cc4c(cc3OC)N(C=O)[C@H]3[C@@](O)(C(=O)OC)[C@H](OC(C)=O)[C@]5(CC)C=CCN6CC[C@]43[C@@H]65)C2)C1,T/C,"endpoint: mean survival time, dose: 0.5 mg/kg/injection, schedule: Q08DX002 (ip), vehicle: saline, higher = longer survival",101 % of control
same,T/C,"endpoint: mean survival time, dose: 1.0 mg/kg/injection, schedule: Q08DX002 (ip), vehicle: saline, higher = longer survival",104 % of control
same,T/C,"endpoint: mean survival time, dose: 1.5 mg/kg/injection, schedule: Q08DX002 (ip), vehicle: saline, higher = longer survival",106 % of control
same,T/C,"endpoint: mean tumor weight, dose: 0.05 mg/kg/injection, schedule: Q01DX011 (ip), vehicle: saline, higher = larger tumour",81 % of control
same,T/C,"endpoint: mean tumor weight, dose: 0.1 mg/kg/injection, schedule: Q01DX011 (ip), vehicle: saline, higher = larger tumour",83 % of control
same,T/C,"endpoint: mean tumor weight, dose: 0.15 mg/kg/injection, schedule: Q01DX011 (ip), vehicle: saline, higher = larger tumour",87 % of control and 101 % of control
same,T/C,"endpoint: mean tumor weight, dose: 0.22 mg/kg/injection, schedule: Q01DX011 (ip), vehicle: saline, higher = larger tumour",88 % of control
same,T/C,"endpoint: mean tumor weight, dose: 0.5 mg/kg/injection, schedule: Q01DX011 (ip), vehicle: saline, higher = larger tumour",59 % of control
same,T/C,"endpoint: mean tumor weight, dose: 62.5 micrograms/kg/injection, schedule: Q01DX011 (ip), vehicle: saline, higher = larger tumour",59 % of control
same,T/C,"endpoint: mean tumor weight, dose: 125.0 micrograms/kg/injection, schedule: Q01DX011 (ip), vehicle: saline, higher = larger tumour",80 % of control
same,T/C,"endpoint: mean tumor weight, dose: 250.0 micrograms/kg/injection, schedule: Q01DX011 (ip), vehicle: saline, higher = larger tumour",59 % of control
same,T/C,"endpoint: median survival time, dose: 0.12 mg/kg/injection, schedule: Q01DX009 (ip), vehicle: saline, higher = longer survival",116 % of control
same,T/C,"endpoint: median survival time, dose: 0.12 mg/kg/injection, schedule: Q04DX003 (ip), vehicle: saline, higher = longer survival",104 % of control
same,T/C,"endpoint: median survival time, dose: 0.13 mg/kg/injection, schedule: Q01DX009 (ip), vehicle: saline, higher = longer survival",100 % of control
same,T/C,"endpoint: median survival time, dose: 0.25 mg/kg/injection, schedule: Q01DX009 (ip), vehicle: saline, higher = longer survival",108 % of control
same,T/C,"endpoint: median survival time, dose: 0.25 mg/kg/injection, schedule: Q04DX003 (ip), vehicle: saline, higher = longer survival",108 % of control
same,T/C,"endpoint: median survival time, dose: 0.5 mg/kg/injection, schedule: Q01DX009 (ip), vehicle: saline, higher = longer survival",108 % of control
same,T/C,"endpoint: median survival time, dose: 0.5 mg/kg/injection, schedule: Q04DX003 (ip), vehicle: saline, higher = longer survival",88 % of control
same,T/C,"endpoint: median survival time, dose: 0.5 mg/kg/injection, schedule: Q08DX002 (ip), vehicle: saline, higher = longer survival",104 % of control
same,T/C,"endpoint: median survival time, dose: 1.0 mg/kg/injection, schedule: Q04DX003 (ip), vehicle: saline, higher = longer survival",93 % of control
same,T/C,"endpoint: median survival time, dose: 1.0 mg/kg/injection, schedule: Q08DX002 (ip), vehicle: saline, higher = longer survival",104 % of control
same,T/C,"endpoint: median survival time, dose: 1.5 mg/kg/injection, schedule: Q08DX002 (ip), vehicle: saline, higher = longer survival",108 % of control
same,T/C,"endpoint: median survival time, dose: 2.0 mg/kg/injection, schedule: Q04DX003 (ip), vehicle: saline, higher = longer survival",53 % of control
same,T/C,"endpoint: median survival time, dose: 125.0 micrograms/kg/injection, schedule: Q01DX009 (ip), vehicle: saline, higher = longer survival",88 % of control and 118 % of control
same,T/C,"endpoint: median survival time, dose: 250.0 micrograms/kg/injection, schedule: Q01DX009 (ip), vehicle: saline, higher = longer survival",93 % of control
same,T/C,"endpoint: median survival time, dose: 500.0 micrograms/kg/injection, schedule: Q01DX009 (ip), vehicle: saline, higher = longer survival",97 % of control
same,T/C,"endpoint: median tumor weight (est.), dose: 0.12 mg/kg/injection, schedule: Q01DX011 (ip), vehicle: saline, higher = larger tumour",102 % of control
same,T/C,"endpoint: median tumor weight (est.), dose: 0.18 mg/kg/injection, schedule: Q01DX011 (ip), vehicle: saline, higher = larger tumour",46 % of control
same,T/C,"endpoint: median tumor weight (est.), dose: 125.0 micrograms/kg/injection, schedule: Q01DX009 (ip), vehicle: saline, higher = larger tumour",92 % of control
same,T/C,"endpoint: median tumor weight (est.), dose: 250.0 micrograms/kg/injection, schedule: Q01DX009 (ip), vehicle: saline, higher = larger tumour",93 % of control
same,T/C,"endpoint: median tumor weight (est.), dose: 500.0 micrograms/kg/injection, schedule: Q01DX009 (ip), vehicle: saline, higher = larger tumour",43 % of control
CC[C@](O)(C(=O)O)c1cc2n(c(=O)c1CO)Cc1cc3ccccc3nc1-2,T/C,"endpoint: median survival time, dose: 1.0 mg/kg/injection, schedule: Q01DX009 (ip), vehicle: saline, higher = longer survival",117 % of control
same,T/C,"endpoint: median survival time, dose: 2.0 mg/kg/injection, schedule: Q01DX009 (ip), vehicle: saline, higher = longer survival",92 % of control
Cc1cc(N(CCCl)CCCl)ccc1C=Nc1cccnc1,T/C,[4],104 % of control
same,T/C,"endpoint: median survival time, dose: 25.0 mg/kg/injection, schedule: Q01DX009 (ip), vehicle: saline with Tween-80, higher = longer survival",95 % of control
same,T/C,[3],96 % of control
same,T/C,"endpoint: median survival time, dose: 50.0 mg/kg/injection, schedule: Q01DX009 (ip), vehicle: saline with Tween-80, higher = longer survival",92 % of control
same,T/C,"endpoint: median survival time, dose: 100.0 mg/kg/injection, schedule: Q01DX009 (ip), vehicle: Klucel (hydroxypropylcellulose) (HPC), higher = longer survival",103 % of control
same,T/C,"endpoint: median survival time, dose: 100.0 mg/kg/injection, schedule: Q01DX009 (ip), vehicle: saline with Tween-80, higher = longer survival",93 % of control
same,T/C,"endpoint: median survival time, dose: 200.0 mg/kg/injection, schedule: Q01DX009 (ip), vehicle: Klucel (hydroxypropylcellulose) (HPC), higher = longer survival",98 % of control
